This passage reports IC50 results from patent US12643887B2, “Heterocyclic derivatives with cardiomyocyte proliferation activity for treatment of heart diseases” (Tongji University, priority 2019, dated 2026).

Test [1] has as its target T1, human CLK1 (Homo sapiens, UniProt P49759).
T1 construct: Recombinant human CLK1 (129-end); GST (N); purchased SignalChem C57-11G; host or cells: Sf9 insect cells
Briefly: CLK1 enzyme assay (ADP-Glo). It is filed as biochemical. Conditions: ADP-Glo, ATP 10 μM; read-out: CLK1 IC50. How it is done:
The ability of compounds to inhibit human CLK1 kinase activities was determined using a commercially available ADP-Glo™ Kinase Assay kit (Promega, Cat #V9102) according to the manufacturer's protocol.
(§1) Recombinant human CLK1 (129-end) (expressed in Sf9 insect cells with an N-terminal GST tag) was purchased from SignalChem (Cat #C57-11G). Recombinant full length human MBP (expressed in E. Coli cells with an N-terminal GST tag.) was purchased from SignalChem (Cat #M42-54G). This assay, run in a 384-well plate format, is a generic method for measuring kinase activities using an ADP-Glo Kinase Assay Kit. The basic assay procedure involves two steps: (1) Enzymatic step: inhibitors are incubated with the kinase and then ATP (included in the ADP-Glo Kinase Assay Kit) and the MBP protein are added to start the enzymatic reaction; (2) Detection step: after the kinase reaction, first ADP-Glo™ Reagent is added to terminate the kinase reaction and deplete the remaining ATP. Second, the Kinase Detection Reagent is added to simultaneously convert ADP to ATP and allow the newly synthesized ATP to be measured using a luciferase/luciferin reaction. The light generated is measured using a luminometer.
Briefly, CLK1 (16 nM) in the enzymatic buffer solutions (40 mM Tris, pH 7.5, 20 mM MgCl2, 0.1 mg/ml BSA, 50 μM DTT) were mixed with various concentrations of inhibitors (dissolved in 100% DMSO). These solutions were incubated for 30 minutes at 25° C., and subsequently a mixture of substrate peptide and ATP was added with the final peptide and ATP concentrations at 2 μM and 10 μM, respectively. The final reaction mixture of enzyme-substrate-ATP-compound was incubated for 60 minutes at 25° C.
Afterwards ADP-Glo™ Reagent was added and the mixture was incubated at 25° C. for 60 minutes. Then Kinase Detection Reagent was added and the final mixture was incubated at 25° C. for 60 minutes. The luminescence signal of the final solution was measured on an Envision instrument (PerkinElmer). The percent (%) inhibition at each concentration of a compound is calculated relative to the luminescence signal in the Max and Min control wells contained within each assay plate. […] The concentrations and percent inhibition values for a test compound are plotted and the concentration of the compound required to achieve 50% inhibition (IC50) is determined with a four-parameter logistic dose response equation.

Test [2] deals with T2, human HIPK1 (Homo sapiens, UniProt Q86Z02).
T2 construct: Recombinant human HIPK1 (156-555); GST (N); purchased SignalChem H03-11G; host or cells: Sf9 insect cells
Briefly: HIPK1 enzyme assay (ADP-Glo). It counts as biochemical. Conditions: ADP-Glo, ATP 5 μM; read-out: HIPK1 IC50. How it is done: The ability of compounds to inhibit human HIPK1 kinase activities was determined using a commercially available ADP-Glo™ Kinase Assay kit (Promega, Cat #V9102) according to the manufacturer's protocol.
as §1, with “HIPK1 (156-555)” for “CLK1 (129-end)”, “#H03-11G).” for “#C57-11G).”, “tag)” for “tag.)”
Briefly, HIPK1 (4 nM) in the enzymatic buffer solutions (40 mM Tris, pH 7.5, 20 mM MgCl2, 0.1 mg/ml BSA, 50 μM DTT) were mixed with various concentrations of inhibitors (dissolved in 100% DMSO). These solutions were incubated for 30 minutes at 25° C., and subsequently a mixture of substrate peptide and ATP was added with the final peptide and ATP concentrations at 0.05 mg/ml and 5 μM, respectively. The final reaction mixture of enzyme-substrate-ATP-compound was incubated for 90 minutes at 25° C.
Afterwards ADP-Glo™ Reagent was added and the mixture was incubated at 25° C. for 60 minutes. Then Kinase Detection Reagent was added, and the final mixture was incubated at 25° C. for 60 minutes. The luminescence signal of the final solution was measured on an Envision instrument (PerkinElmer). The percent (%) inhibition at each concentration of a compound is calculated relative to the luminescence signal in the Max and Min control wells contained within each assay plate. […] The concentrations and percent inhibition values for a test compound are plotted and the concentration of the compound required to achieve 50% inhibition (IC50) is determined with a four-parameter logistic dose response equation.

Each structure is given as a SMILES string.

T1 sequence (P49759 129-484 limits assumed): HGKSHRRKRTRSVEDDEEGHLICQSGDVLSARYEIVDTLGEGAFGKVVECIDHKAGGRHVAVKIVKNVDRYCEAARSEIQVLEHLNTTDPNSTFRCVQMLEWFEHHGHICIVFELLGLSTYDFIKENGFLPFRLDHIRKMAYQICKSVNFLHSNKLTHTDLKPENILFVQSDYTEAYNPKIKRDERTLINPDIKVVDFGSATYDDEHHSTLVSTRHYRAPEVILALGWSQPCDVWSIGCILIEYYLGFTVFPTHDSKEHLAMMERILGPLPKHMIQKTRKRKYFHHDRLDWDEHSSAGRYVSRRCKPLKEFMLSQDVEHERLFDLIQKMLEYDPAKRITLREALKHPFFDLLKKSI
T2 sequence (Q86Z02 156-555): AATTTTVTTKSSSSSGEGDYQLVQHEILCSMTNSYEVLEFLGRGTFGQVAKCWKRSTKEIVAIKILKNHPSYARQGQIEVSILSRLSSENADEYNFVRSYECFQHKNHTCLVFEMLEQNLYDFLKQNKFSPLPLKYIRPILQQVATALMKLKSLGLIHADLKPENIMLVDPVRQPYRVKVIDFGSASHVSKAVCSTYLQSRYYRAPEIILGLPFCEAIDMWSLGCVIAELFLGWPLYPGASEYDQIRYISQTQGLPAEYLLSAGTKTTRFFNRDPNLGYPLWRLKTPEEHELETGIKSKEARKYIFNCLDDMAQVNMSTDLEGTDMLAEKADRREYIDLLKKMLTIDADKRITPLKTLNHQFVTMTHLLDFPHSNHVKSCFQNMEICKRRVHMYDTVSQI

`CN(C1=N/C(=C\c2ccc3c(c2)OCO3)C(=O)N1)c1ccccc1` [Example 1, (Z)-5-(benzo[d][1,3]dioxol-5-ylmethylene)-2-(methyl(phenyl)amino)-3,5-dihydro-4H-imidazol-4-one]: the results for the IC50 in test [1] and in test [2] were 100 to 1000 nM and greater than 10000 nM, respectively. On the same counts, the results for `O=C1/C(=C/c2ccc3c(c2)OCO3)N=C(N(Cc2ccccc2)c2ccccc2)N1Cc1ccccc1` [Example 2, (Z)-5-(benzo[d][1,3]dioxol-5-ylmethylene)-3-benzyl-2-(benzyl(phenyl)amino)-3,5-dihydro-4H-imidazol-4-one] are 1000 to 10000 nM and greater than 10000 nM. On the same counts, the results for `CN1C(=O)/C(=C/c2ccc3c(c2)OCO3)N=C1N(C)c1ccccc1` [Example 3, (Z)-5-(benzo[d][1,3]dioxol-5-ylmethylene)-3-methyl-2-(methyl(phenyl)amino)-3,5-dihydro-4H-imidazol-4-one] are 1000 to 10000 nM and greater than 10000 nM. In the same order, the values of `O=C1NC(Nc2ccccc2)=N/C1=C\c1ccc2ncsc2c1` [Example 6, (Z)-5-(benzo[d]thiazol-6-ylmethylene)-2-(phenylamino)-3,5-dihydro-4H-imidazol-4-one] are less than 100 nM and 100 to 1000 nM. Regarding `CN(C1=N/C(=C\c2ccc3ncsc3c2)C(=O)N1)c1ccccc1` [Example 7, (Z)-5-(benzo[d]thiazol-6-ylmethylene)-2-(methyl(phenyl)amino)-3,5-dihydro-4H-imidazol-4-one], the IC50 fell in the range of 100 to 1000 nM in test [1] and 1000 to 10000 nM in test [2]. In the same order, the values of `CN(C1=N/C(=C\c2ccc3c(c2)OCCO3)C(=O)N1)c1ccccc1` [Example 8, (Z)-5-((2,3-dihydrobenzo[b][1,4]dioxin-6-yl)methylene)-2-(methyl(phenyl)amino)-3,5-dihydro-4H-imidazol-4-one] are 1000 to 10000 nM and greater than 10000 nM. On the same counts, the results for `O=C1NC(Nc2ccccc2)=N/C1=C\c1ccc(=O)[nH]c1` [Example 9, (Z)-5-((5-oxo-2-(phenylamino)-1,5-dihydro-4H-imidazol-4-ylidene)methyl)pyridin-2(1H)-one] are 100 to 1000 nM and greater than 10000 nM. In the same order, the values of `O=C1NC(N(CC2CC2)c2ccccc2)=N/C1=C\c1ccc2c(c1)OCO2` [Example 10, (Z)-5-(benzo[d][1,3]dioxol-5-ylmethylene)-2-((cyclopropylmethyl)(phenyl)amino)-3,5-dihydro-4H-imidazol-4-one] are 100 to 1000 nM and greater than 10000 nM. On to `CN(CC1CC1)C1=N/C(=C\c2ccc3c(c2)OCO3)C(=O)N1` [Example 11, (Z)-5-(benzo[d][1,3]dioxol-5-ylmethylene)-2-((cyclopropylmethyl)(methyl)amino)-3,5-dihydro-4H-imidazol-4-one], for which the IC50 in test [1] was 100 to 1000 nM; in test [2], greater than 10000 nM. On the same counts, the results for `COc1ccc(N(C)C2=N/C(=C\c3ccc4c(c3)OCO4)C(=O)N2)cc1` [Example 12, (Z)-5-(benzo[d][1,3]dioxol-5-ylmethylene)-2-((4-methoxyphenyl)(methyl)amino)-3,5-dihydro-4H-imidazol-4-one] are 100 to 1000 nM and greater than 10000 nM.

As to `O=C1NC(N(CCO)c2ccccc2)=N/C1=C\c1ccc2c(c1)OCO2` [Example 13, (Z)-5-(benzo[d][1,3]dioxol-5-ylmethylene)-2-((2-hydroxyethyl)(phenyl)amino)-3,5-dihydro-4H-imidazol-4-one], the values for the IC50 in test [1] and in test [2] were 100 to 1000 nM and 1000 to 10000 nM, respectively.

On to `O=C1NC(Nc2ccccc2)=N/C1=C\c1ccc2scnc2c1` [Example 14, (Z)-5-(benzo[d]thiazol-5-ylmethylene)-2-(phenylamino)-3,5-dihydro-4H-imidazol-4-one], for which the IC50 in test [1] and in test [2] was greater than 10000 nM throughout.

As to `O=C1NC(Nc2ccccc2)=N/C1=C\c1cncs1` [Example 15, (Z)-2-(phenylamino)-5-(thiazol-5-ylmethylene)-3,5-dihydro-4H-imidazol-4-one], the IC50 in test [1] and in test [2] was greater than 10000 nM throughout. In the case of `O=C1NC(Nc2ccccc2)=N/C1=C\c1ccc2nccnc2c1` [Example 16, (Z)-2-(phenylamino)-5-(quinoxalin-6-ylmethylene)-3,5-dihydro-4H-imidazol-4-one], the figures for the IC50 in test [1] and in test [2] were less than 100 nM and 1000 to 10000 nM, respectively. In the same order, the values of `CN(C1=N/C(=C\c2ccc3c(c2)OC(F)(F)O3)C(=O)N1)c1ccccc1` [Example 17, (Z)-5-((2,2-difluorobenzo[d][1,3]dioxol-5-yl)methylene)-2-(methyl(phenyl)amino)-3,5-dihydro-4H-imidazol-4-one] are greater than 10000 nM and greater than 10000 nM. In the same order, the values of `CN(C1=N/C(=C\c2ccc3c(c2)OCO3)C(=O)N1)c1cccnc1` [Example 18, (Z)-5-(benzo[d][1,3]dioxol-5-ylmethylene)-2-(methyl(pyridin-3-yl)amino)-3,5-dihydro-4H-imidazol-4-one] are 100 to 1000 nM and greater than 10000 nM. In the same order, the values of `CN(CC1CC1)C1=N/C(=C\c2ccc3c(c2)OCCO3)C(=O)N1` [Example 19, (Z)-2-((cyclopropylmethyl)(methyl)amino)-5-((2,3-dihydrobenzo[b][1,4]dioxin-6-yl)methylene)-3,5-di hydro-4H-imidazol-4-one] are 1000 to 10000 nM and greater than 10000 nM. In the case of `CN(CCN1CCOCC1)C1=N/C(=C\c2ccc3c(c2)OCO3)C(=O)N1` [Example 20, (Z)-5-(benzo[d][1,3]dioxol-5-ylmethylene)-2-(methyl(2-morpholinoethyl)amino)-3,5-dihydro-4H-imidazol-4-one], the results for the IC50 in test [1] and in test [2] were 100 to 1000 nM and greater than 10000 nM, respectively.

For `COc1ccccc1N(C)C1=N/C(=C\c2ccc3c(c2)OCO3)C(=O)N1` [Example 21, (Z)-5-(benzo[d][1,3]dioxol-5-ylmethylene)-2-((2-methoxyphenyl)(methyl)amino)-3,5-dihydro-4H-imidazol-4-one], the IC50 in test [1] is 1000 to 10000 nM; in test [2] it was greater than 10000 nM. Take `O=C1NC(N(Cc2ccccc2)c2ccccc2)=N/C1=C\c1ccc2c(c1)OCO2` [Example 22, (Z)-5-(benzo[d][1,3]dioxol-5-ylmethylene)-2-(benzyl(phenyl)amino)-3,5-dihydro-4H-imidazol-4-one]: the IC50 in test [1] is 1000 to 10000 nM; in test [2], greater than 10000 nM. On to `O=C1NC(NCc2ccccc2)=N/C1=C\c1ccc2ncsc2c1` [Example 31, (Z)-5-(benzo[d]thiazol-6-ylmethylene)-2-(benzylamino)-3,5-dihydro-4H-imidazol-4-one], for which the IC50 in test [2] lay in the range of 100 to 1000 nM. On the same count and under the same terms, then `O=C1NC(NCC2CC2)=N/C1=C\c1ccc2ncsc2c1` [Example 34, (Z)-5-(benzo[d]thiazol-6-ylmethylene)-2-((cyclopropylmethyl)amino)-3,5-dihydro-4H-imidazol-4-one], with 1000 to 10000 nM.
